Laboratory results: ChEMBL document CHEMBL3507680, “University of Dundee, Gates Library screen for HepG2 cell viability”

Experiment: Human HepG2 cell viability assay in 384 well format
Assay type: toxicity, cell-based
Design: dose 125 nL, time 70.5 hour; cytotoxicity at 70.5 h: concentration not given beside the values
Settings: HepG2 cells, read-out: Inhibition

SMILES	cytotoxicity at 70.5 h [%]
CN(C)CC1(O)CCN(C(=O)Cc2ccc(Cl)c(Cl)c2)C1 (configuration not stated)	10.5
CCO[C@H]1CN(C)C[C@@H]1NC(=O)c1cc(C)nc2ccc(C)cc12	-6.33
CCN1CCN(C(=O)NC(C)c2noc(-c3ccccc3)n2)CC1 (configuration not stated)	-6.34
Cc1nc(CN2CCCC2c2noc(C3CC3)n2)nc2ccccc12 (configuration not stated)	43.5
O=S(=O)(Nc1ccccn1)c1cc(Cl)cc2c1OCC2	4.53
COc1ccc(CNC(=O)NCCCNS(C)(=O)=O)cc1OC	-8.21
Cc1ccc(CCCC(=O)N2CCC(=O)Nc3cccnc32)s1	12.9
CCN1CCN(C(=O)C(C)N2CCN(Cc3nccn3C)CC2)CC1 (configuration not stated)	0.843
O=C(NCCC(=O)N1CCCCCCC1)c1ccoc1	-1.22
Cn1ccnc1CN1CCN(CC(O)c2cccc(F)c2)CC1 (configuration not stated)	-12.2
CO[C@@H]1CCC[C@@H](N(C)C(=O)c2cn3cc(C)ccc3n2)[C@H]1O	-8.11
Cc1noc(OCCOc2cccc(C#N)c2)n1	-3.56
O=C(NCCc1cccs1)[C@H]1CO[C@H]2CCN(C3CCC3)C[C@H]2C1	-0.468
Cc1cccc(CO[C@H]2CO[C@@]3(CCN(S(=O)(=O)N(C)C)C3)C2)n1	15.2
CCC(Oc1ccc(N(C)S(C)(=O)=O)cc1)C(=O)NC (configuration not stated)	-1.39
CNS(=O)(=O)CC1CCCN1C(=O)c1cccc(Cl)c1 (configuration not stated)	-7.35
CC(CN1CCCC1=O)NC(=O)c1ccc(-c2ccco2)[nH]c1=O (configuration not stated)	-96.6
COc1ccc(-c2noc([C@@H]3C[C@@H](O)CN3C3CCN(C)CC3)n2)cc1	-2.03
NC(=O)Nc1cc(Br)cnc1OCC(F)(F)F	-7.02

SMILES	cytotoxicity at 70.5 h [%]
COCCNC(=O)c1nc2c(s1)CCCN2Cc1ccccc1	-6.6
CN(C)c1nc2c(c(N(C)Cc3n[nH]c4c3CCCC4)n1)CCNCC2	-7.02
Cc1ccc(S(=O)(=O)N(CC2CCOC2)C2CC2)cc1N(C)C (configuration not stated)	0.338
Cc1ccc(C(=O)N2C[C@@H]3CC[C@H](C2)N(CC2CCC2)C3)s1	7.49
CC(C)c1noc(CCC(=O)Nc2cc(F)ccc2F)n1	12.9
N#Cc1c2n(c3c(=O)[nH]cnc13)CCCC2	-6.51
CCCc1noc(CCCC(=O)N2CCCC2c2cnn(C)c2)n1 (configuration not stated)	-8.23
CCCOc1cccc(C(=O)Oc2cc(=O)n3cccc(C)c3n2)c1	-12.8
CCn1nnc2c1CCN(C(=O)c1ccc3c(c1)OCO3)C2COC (configuration not stated)	10.7
CN1CCN(Cc2noc(-c3cc(-c4ccc(F)cc4)n[nH]3)n2)CC1	31.6
CN1CCN(C2CCN(c3cnc4ccccc4n3)CC2)C1=O	-12.4
CCn1nc(C)c2nc(C(C)C)nc(N3CCCC3)c21	15.3
CCS(=O)(=O)N1CCc2c(nc(C3CCCN3)nc2NC)C1 (configuration not stated)	18.6
CCn1cnnc1C1CCN(C(=O)c2cnc(C)s2)CC1	-12.3
CCn1c(N)nc2cc(C(=O)NCc3ccccc3Cl)cnc21	0.502
COc1ccc(CN2CCCn3cncc3C2)cc1Cn1cncn1	-8.65
OCC1CCCN1c1cc(NCCNc2ccccn2)ncn1 (configuration not stated)	0.758
Cc1cccc(N2CCN(CCCNC(=O)c3nccn3C)CC2)c1	-3.1
O=C(c1ccc(COc2ccc(Cl)cc2)o1)N1N=CCC1(O)C(F)(F)F (configuration not stated)	10.7

SMILES	cytotoxicity at 70.5 h [%]
O=C(Nc1ccccc1)NC1CCN(C2CCOC2)CC1 (configuration not stated)	5.7
Cc1ncc(CN2CCCN(Cc3noc(C4CC4)n3)CC2)s1	23.6
COc1cc(CNc2nc(N3CCOCC3)ns2)cc(OC)c1OC	-5.63
O=C(Cc1noc2ccccc12)N1CCC(Nc2cccnn2)CC1	-5.81
COc1ccc(CN2CCn3c(CNS(C)(=O)=O)nnc3C2)cc1	24.4
c1cnc(N2C[C@H]3CCN(CCN4CCCC4)C[C@H]3C2)cn1	-5.43
Cc1cnccc1NCCNC(=O)C1CCCN(Cc2ccco2)C1 (configuration not stated)	9.92
Cc1cccnc1CN1CCN(C(=O)CCn2ccccc2=O)CC1	0.0273
CCn1ccnc1CN1CCN(CCOc2ccccc2OC)CC1	7.36
Cc1ccc(NC2(C(=O)NCCCN)CCCC2)cc1	-8.06
Cc1nccn1CCN(C)C(=O)c1cn(CC2CCCCC2)nn1	-25.4
CN(Cc1ccsc1)C(=O)Nc1cccc(N2CCOC2=O)c1	26.8
Cn1cc(C(=O)NCc2cn3c(n2)CN(Cc2ccncc2)CC3)cn1	-7.44
Cc1nn(C)c(C)c1-c1cncc(C2CCN(S(C)(=O)=O)CC2)n1	-19.6
COc1ccc(CCC(=O)N2CCN(c3nc(C)ns3)CC2)cc1	-0.82
O=C(CS(=O)(=O)c1ccccn1)NC1CCCc2ccccc21 (configuration not stated)	1
Cc1n[nH]c(C2CN(CC(=O)NCCc3ccccc3)CCO2)n1 (configuration not stated)	9
CS(=O)(=O)N1CCCC(c2nc(-c3ccccc3)c[nH]2)C1 (configuration not stated)	-7.34
COc1c(C)cnc(CNC(=O)CCc2nc3ccccc3[nH]2)c1C	-3.14
